Measurements from article PMC11820700, “Antioxidant, Enzyme-Inhibitory and Antimicrobial Activity of Underutilized Wheat and Maize Crop Residues” (Plants, 2025).
Values after ≈ are worked out from the molar mass of the structure shown. Values joined by “and” are separate entries in the source; they are usually repeats but may differ in a detail not shown here. Equal values may be shown once. Read-outs that look alike come from different tables or passages of the source. Marks after values point to notes of the source that are not given here.

Tests used:
[1] = DPPH free radical scavenging assay
[2] = ABTS free radical scavenging assay
[3] = FRAP ferric reducing power assay
[4] = TRC (total reducing capacity) ferric reducing power assay; settings: L-ascorbic acid equivalents
[5] = target: T1, α-amylase from porcine pancreas (Sus scrofa, UniProt P00690); assay: biochemical
T1 construct: purchased Merck KGaA (Darmstadt, Germany) type VI-B (catalogue number not given); host or cells: porcine pancreas
T1 sequence (P00690 16-511): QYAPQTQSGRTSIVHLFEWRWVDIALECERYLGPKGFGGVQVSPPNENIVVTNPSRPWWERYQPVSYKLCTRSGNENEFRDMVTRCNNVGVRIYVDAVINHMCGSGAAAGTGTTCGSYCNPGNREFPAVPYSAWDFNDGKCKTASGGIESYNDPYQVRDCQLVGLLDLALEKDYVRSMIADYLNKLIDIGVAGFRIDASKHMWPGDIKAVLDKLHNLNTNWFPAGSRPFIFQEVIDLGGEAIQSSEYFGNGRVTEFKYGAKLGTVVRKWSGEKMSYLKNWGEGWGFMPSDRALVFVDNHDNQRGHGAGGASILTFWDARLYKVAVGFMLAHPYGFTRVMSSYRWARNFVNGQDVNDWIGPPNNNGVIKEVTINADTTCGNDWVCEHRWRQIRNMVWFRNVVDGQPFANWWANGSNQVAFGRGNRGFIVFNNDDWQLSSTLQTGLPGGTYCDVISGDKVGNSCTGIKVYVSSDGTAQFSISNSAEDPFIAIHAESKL

[6] = target: α-glucosidase from bakers’ yeast (Saccharomyces cerevisiae, UniProt P53341); assay type: biochemical
Chain of α-glucosidase from bakers’ yeast (P53341 whole entry, looked up): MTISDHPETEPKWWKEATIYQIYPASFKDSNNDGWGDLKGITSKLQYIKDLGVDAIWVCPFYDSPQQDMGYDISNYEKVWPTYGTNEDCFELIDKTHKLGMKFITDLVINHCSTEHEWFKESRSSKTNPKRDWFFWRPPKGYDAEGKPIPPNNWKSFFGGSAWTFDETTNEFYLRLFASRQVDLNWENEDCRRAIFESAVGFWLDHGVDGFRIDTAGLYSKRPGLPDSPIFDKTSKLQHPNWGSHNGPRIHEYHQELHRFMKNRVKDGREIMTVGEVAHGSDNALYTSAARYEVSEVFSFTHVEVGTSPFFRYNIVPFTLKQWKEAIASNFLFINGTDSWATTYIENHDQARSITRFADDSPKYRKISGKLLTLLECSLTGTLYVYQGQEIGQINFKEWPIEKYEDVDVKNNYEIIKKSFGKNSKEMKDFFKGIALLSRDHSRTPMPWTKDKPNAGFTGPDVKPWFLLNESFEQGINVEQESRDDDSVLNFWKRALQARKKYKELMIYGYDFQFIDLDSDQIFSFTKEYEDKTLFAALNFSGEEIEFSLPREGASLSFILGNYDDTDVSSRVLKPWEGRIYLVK

[7] = target: acetylcholinesterase (AChE) from Electrophorus electricus (Electrophorus electricus, UniProt O42275); assay: biochemical
Chain of acetylcholinesterase (AChE) from Electrophorus electricus (O42275 24-633 limits assumed): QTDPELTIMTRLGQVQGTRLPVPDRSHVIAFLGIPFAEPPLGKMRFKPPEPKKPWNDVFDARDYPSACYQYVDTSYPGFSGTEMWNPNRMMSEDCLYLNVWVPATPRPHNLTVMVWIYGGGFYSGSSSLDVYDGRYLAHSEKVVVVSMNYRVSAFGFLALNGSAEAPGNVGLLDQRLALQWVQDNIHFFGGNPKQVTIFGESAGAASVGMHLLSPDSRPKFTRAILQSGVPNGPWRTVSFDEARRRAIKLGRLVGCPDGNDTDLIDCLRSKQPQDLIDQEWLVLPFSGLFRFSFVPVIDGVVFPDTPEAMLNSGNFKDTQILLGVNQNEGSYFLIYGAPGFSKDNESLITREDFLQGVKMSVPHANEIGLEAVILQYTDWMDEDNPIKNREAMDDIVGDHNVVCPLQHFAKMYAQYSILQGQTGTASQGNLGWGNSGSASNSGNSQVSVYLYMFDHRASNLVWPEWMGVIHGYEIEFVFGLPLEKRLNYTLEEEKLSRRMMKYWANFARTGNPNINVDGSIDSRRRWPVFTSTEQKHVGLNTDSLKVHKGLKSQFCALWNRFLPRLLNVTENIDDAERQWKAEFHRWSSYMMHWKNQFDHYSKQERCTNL

[8] = target: butyrylcholinesterase (BChE) from equine serum (Equus caballus, UniProt P81908); assay: biochemical; assay type: biochemical
Chain of butyrylcholinesterase (BChE) from equine serum (P81908 whole entry, looked up): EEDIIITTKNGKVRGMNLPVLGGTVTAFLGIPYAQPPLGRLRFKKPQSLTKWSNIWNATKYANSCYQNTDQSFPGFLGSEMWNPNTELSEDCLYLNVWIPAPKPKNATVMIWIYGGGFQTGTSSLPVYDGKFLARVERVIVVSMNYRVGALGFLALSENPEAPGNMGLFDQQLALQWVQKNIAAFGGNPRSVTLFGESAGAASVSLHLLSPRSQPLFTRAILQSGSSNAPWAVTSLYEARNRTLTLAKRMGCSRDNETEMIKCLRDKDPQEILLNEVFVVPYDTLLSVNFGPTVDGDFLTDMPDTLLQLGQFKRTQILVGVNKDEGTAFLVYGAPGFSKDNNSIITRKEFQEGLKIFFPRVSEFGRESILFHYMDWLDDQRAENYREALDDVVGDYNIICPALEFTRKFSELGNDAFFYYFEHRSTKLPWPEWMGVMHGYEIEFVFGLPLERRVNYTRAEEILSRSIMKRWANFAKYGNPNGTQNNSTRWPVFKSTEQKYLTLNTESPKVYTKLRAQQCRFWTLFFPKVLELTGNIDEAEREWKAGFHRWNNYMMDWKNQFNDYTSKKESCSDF

[9] = system: Staphylococcus aureus ATCC 6538; assay: Broth microdilution MIC; assay type: cell-based; settings: extracts 62.5–1000, compounds 31.25–500 µg/mL tested
[10] = system: Enterococcus faecalis ATCC 29212; assay: Broth microdilution MIC; assay type: cell-based; settings: for Minimal Inhibitory Concentrations MICs: 24 h
[11] = system: Bacillus subtilis ATCC 6633; assay: Broth microdilution MIC; assay type: cell-based; settings: for Minimal Inhibitory Concentrations MICs: 24 h
[12] = system: Escherichia coli ATCC 8739; assay: Broth microdilution MIC; assay type: cell-based
[13] = system: Klebsiella pneumoniae NCIMB 9111; assay: Broth microdilution MIC; assay type: cell-based
[14] = system: Salmonella abony NCTC 6017; assay: Broth microdilution MIC; assay type: cell-based
[15] = system: Pseudomonas aeruginosa ATCC 9027; assay: Broth microdilution MIC; assay type: cell-based
[16] = system: Candida albicans ATCC 10231; assay: Broth microdilution MIC; assay type: cell-based; settings: for Minimal Inhibitory Concentrations MICs: 48 h
[17] = cited from earlier work; for DPPH radical inhibition: concentrations 50–1000 µg/mL, ref Jeong et al. (2010) [24]
α-amylase = settings: cited from earlier work
α-glucosidase = settings: cited from earlier work
[18] = system: clinical isolates of both Gram-positive and Gram-negative bacteria; design: method as in Alves et al. (2013) [45]; settings: ref Alves et al. (2013) [45]; cited from earlier work
[19] = system: methicillin-resistant Staphylococcus aureus (MRSA); settings: ref Alves et al. (2013) [45]; cited from earlier work
[20] = design: method as in Glišić et al. (2024) [4]; settings: ref Glišić et al. (2024) [4]; cited from earlier work
[21] = design: method as in Glišić et al. (2024) [4]; settings: ref Glišić et al. (2024) [4]; cited from earlier work; remark: listed apart in the source
[22] = design: method as in Glišić et al. (2024) [4]; settings: ref Glišić et al. (2024) [4]; cited from earlier work; remark: listed apart in the source
[23] = cited from earlier work
[24] = target: acetylcholinesterase (AChE); settings: ref Kuppusamy et al. (2017) [40]; cited from earlier work
tyrosinase from mushroom = assay type: biochemical
tyrosinase = settings: ref [38]; cited from earlier work
[25] = mg/mL figure given in parentheses beside mM, ref Jeong et al. (2012) [29]
[26] = isolated from medicinal rice (Oryza sativa L.), ref Mohanlal et al. (2011) [7]

COc1cc(/C=C/C(=O)O)ccc1O [FA, ferulic acid]
DPPH IC50 [1]: 0.0068 ± 0.0001 ^c mg/mL
ABTS IC50 [2]: 0.0034 ± 0.0001 ^d mg/mL
FRAP [3]: 2.02 ± 0.04 ^a µmol Fe^2+/g
FRAP ([3]; listed as ferulic acid): 2.02 µmol Fe^2+/g
TRC [4]: 2467.90 ± 91.26 ^a mg L-AAE/g
TRC ([4]; listed as ferulic acid): 2467.90 mg L-AAE/g
α-amilase IC50 [5]: 3.35 ± 0.85 ^b mg/mL
α-glucosidase IC50 [6]: 1.49 ± 0.18 ^a mg/mL
AChE IC50 [7]: 4.10 ± 0.37 ^c mg/mL
BChE IC50 [8]: 1.97 ± 0.08 ^c mg/mL
Minimal Inhibitory Concentrations MICs ([9]; 24 h): 62.5 µg/mL
Minimal Inhibitory Concentrations MICs [10]: 125 µg/mL
Minimal Inhibitory Concentrations MICs [11]: 62.5 µg/mL
Minimal Inhibitory Concentrations MICs ([12]; 24 h): >500 µg/mL
Minimal Inhibitory Concentrations MICs ([13]; 24 h): >500 µg/mL
Minimal Inhibitory Concentrations MICs [14]: >500 µg/mL
Minimal Inhibitory Concentrations MICs ([15]; 24 h): >500 µg/mL
Minimal Inhibitory Concentrations MICs [16]: >500 µg/mL
DPPH radical inhibition [17]: 84.3–92.3%
α-amylase IC50 (α-amylase; [25]): 1840 µg/mL
IC50 (α-amylase; ref Jeong et al. (2012) [29]): 9.5 mM
α-glucosidase IC50 (α-glucosidase; [25]): 950 µg/mL
IC50 (α-glucosidase; ref Jeong et al. (2012) [29]): 4.9 mM
α-glucosidase IC50 (α-glucosidase; ref Nile and Park (2014) [34]): 251.4 µg/mL
MIC [18]: ≥ 1000 µg/mL
MIC [19]: 500 µg/mL (≈ 2570 µM)

C[C@H]1O[C@H](O[C@H]2[C@H](O)[C@@H](O)[C@@H](O[C@H]3[C@H](O)[C@@H](O)C(O)O[C@@H]3CO)O[C@@H]2CO)[C@H](O)[C@@H](O)[C@@H]1N[C@H]1C=C(CO)[C@@H](O)[C@H](O)[C@H]1O (some centres unmarked) [ACB, acarbose, reference compound]
α-amylase inhibition (α-amylase; at 1.5 mg/mL, ref [29]): 59.3%
α-glucosidase inhibition (α-glucosidase; at 0.44 mg/mL, ref [33]): 62%
α-glucosidase inhibition (α-glucosidase; at 1.5 mg/mL, ref [29]): 70.2%

Cc1cc(C(C)(C)C)c(O)c(C(C)(C)C)c1 [BHT, butylated hydroxytoluene]
TRC [4]: 615.02 ± 38.87 ^c mg L-AAE/g
DPPH IC50 [20]: 0.038 ± 0.001 ^e mg/mL
ABTS IC50 [21]: 0.040 ± 0.002 ^e mg/mL
FRAP [22]: 0.41 µmol Fe^2+/g and 0.41 ± 0.03 ^c µmol Fe^2+/g and 0.41 ± 0.03 ^d µmol Fe^2+/g
DPPH radicals scavenged ([17]; at 0.2 mg/mL, ref [27]): 47.32%
DPPH radical inhibition [17]: 73.9–90.7%
DPPH IC50 ([17]; methanol extracts from unfermented straw, ref Đorđević et al. (2019) [12]): 50 µg/mL
DPPH IC50 ([17]; ref Yang et al. (2024) [20]): 150 µg/mL
ABTS radicals scavenged ([23]; at 0.2 mg/mL, ref [27]): 50.32%
ABTS IC50 ([23]; ref Yang et al. (2024) [20]): 140 µg/mL

O=c1cc(-c2cc(O)c(O)c(O)c2)oc2cc(O)cc(O)c12 [tricetin]
AChE IC50 [24]: 18.28 µg/mL

COc1cc([C@H](O)[C@H](CO)Oc2c(OC)cc(-c3cc(=O)c4c(O)cc(O)cc4o3)cc2OC)ccc1O [salcolin B, tricin 4′-O-(erythro-β-guaiacylglyceryl)ether]
DPPH IC50 [17, 26]: 352.04 µg/mL

COc1cc(-c2cc(=O)c3c(O)cc(O)cc3o2)cc(OC)c1O [TRN, 5,7,4′-trihydroxy-3′,5′-dimethoxyflavone]
DPPH IC50 [1]: 1.71 ± 0.15 ^b mg/mL
ABTS IC50 [2]: 0.46 ± 0.01 ^a mg/mL
FRAP [3]: 0.34 ± 0.01 ^d µmol Fe^2+/g
TRC [4]: 312.08 ± 12.44 ^d mg L-AAE/g
IC50 ([5]; read-out: α-amilase IC50 (converted)): 5.84 mM
IC50 [7]: 8.72 mM
IC50 [8]: 1.67 mM
Tyr IC50 (tyrosinase from mushroom): did not exhibit inhibitory activity within the tested concentration range
MIC ([9]; ATCC6538, 24 h, read-out: Minimal Inhibitory Concentrations MICs): 62.5 µg/mL (≈ 189 µM)
Minimal Inhibitory Concentrations MICs [10]: 31.25 µg/mL
MIC ([10]; ATCC29212, 24 h, read-out: Minimal Inhibitory Concentrations MICs): 31.2 µg/mL (≈ 94.6 µM)
Minimal Inhibitory Concentrations MICs [11]: 31.25 µg/mL
MIC ([11]; ATCC6633, 24 h, read-out: Minimal Inhibitory Concentrations MICs): 31.2 µg/mL (≈ 94.6 µM)
MIC ([12]; ATCC8739, 24 h, read-out: Minimal Inhibitory Concentrations MICs): > 500 µg/mL
MIC ([13]; NCIMB9111, 24 h, read-out: Minimal Inhibitory Concentrations MICs): > 500 µg/mL
MIC ([14]; Salmonella enterica, NCTC6017, Salmonella abony, 24 h, read-out: Minimal Inhibitory Concentrations MICs): > 500 µg/mL
MIC ([15]; ATCC9027, 24 h, read-out: Minimal Inhibitory Concentrations MICs): > 500 µg/mL
Minimal Inhibitory Concentrations MICs [16]: 250 µg/mL
MIC ([16]; ATCC10231, 48 h, read-out: Minimal Inhibitory Concentrations MICs): 250 µg/mL (≈ 757 µM)
DPPH IC50 [17, 26]: 90.39 µg/mL
tyrosinase IC50 (tyrosinase): 269.46 µg/mL
